Data on 10 compounds can be found in ChEMBL document CHEMBL1201862, “PubChem BioAssay data set” (2004).

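Protocol summary: plate cells (96-well), add compound at 5 concentrations, incubate 48 h, interpolate endpoints linearly. GI50 marks 50% less growth.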 The source made the active and inactive calls. Cut-off read from the data, not from the text of the source: active = GI50 up to about 1.1 µM and inactive = higher.

Test systems include MDA-N; M14; HCT-15; HOP-92; HOP-62; SW-620; CCRF-CEM; SK-MEL-5; IGROV-1; SK-MEL-2; LOX IMVI; NCI-H226; UO-31; COLO 205; OVCAR-8; Hs-578T; K562; MDA-MB-435; SK-OV-3; OVCAR-5.
Assay in all cases: inhibition of tumour cell growth, NCI panel, 48 h

In the case of `Cc1[nH]c(-c2ccccc2)c(-c2ccc(Cl)cc2)c1C(=O)ONC(=O)c1ccccc1`, the GI50 with MDA-N is 2 µM (inactive); in the test with M14, 4.55 µM (inactive); with HCT-15, 6.17 µM; in the test with HOP-92, 1.77 µM (inactive); in the test with HOP-62 it was 2.07 µM (inactive); with SW-620, 7.26 µM (inactive). The GI50 is 1.75 µM (inactive) in the test on CCRF-CEM; 3.41 µM (inactive) with SK-MEL-5; 1.16 µM (inactive) in the test on IGROV-1; 2.9 µM (inactive) in the test with SK-MEL-2; 1.39 µM (inactive) in the test with LOX IMVI; 3.61 µM (inactive) with NCI-H226. Also, the GI50 in the test with UO-31 was 0.113 µM (active); in the test with COLO 205, 5.93 µM (inactive); in the test with OVCAR-8 it was 4 µM (inactive); with Hs-578T, 2.26 µM (inactive); in the test on K562, 2.65 µM (inactive); with MDA-MB-435 it was 2.47 µM (inactive). Moreover, the GI50 is 10.5 µM (inactive) in the test with SK-OV-3 and 5.07 µM (inactive) in the test on OVCAR-5.

Turning to `O=c1c2cc(S(=O)(=O)Nc3ccc(Cl)cc3Cl)ccc2ncn1NS(=O)(=O)c1cccc2ccccc12`, the GI50 with MDA-N was 48 µM (inactive); in the test with M14, 93.8 µM (inactive); with HCT-15, 34.1 µM; in the test on HOP-92, 16.2 µM (inactive); in the test with HOP-62 it was 41.3 µM (inactive); with SW-620 it was 71.4 µM (inactive). For the same compound, the GI50 was 12.7 µM (inactive) with CCRF-CEM; 20.7 µM (inactive) in the test on IGROV-1; 38.1 µM (inactive) with SK-MEL-2; 15.5 µM (inactive) with LOX IMVI; 18.6 µM (inactive) in the test with NCI-H226; 14.1 µM (inactive) in the test on UO-31. For the same compound, the GI50 was 43.7 µM (inactive) in the test on COLO 205; 52.2 µM (inactive) in the test on OVCAR-8; 21.5 µM (inactive) in the test on Hs-578T; 63.5 µM (inactive) in the test on K562; 58.9 µM (inactive) in the test on MDA-MB-435; 66.8 µM (inactive) in the test with SK-OV-3. The GI50 with OVCAR-5 is 61.5 µM (inactive).

Regarding `O=C1C(/C=N/CCc2c[nH]c3ccccc23)C(C(F)(F)F)=NN1c1nc2ccccc2s1` (centres undefined), the GI50 with MDA-N is 32.8 µM (inactive); with M14 it was 30.7 µM (inactive); in the test with HCT-15, 29.9 µM; in the test with HOP-92, 16.4 µM (inactive); in the test on HOP-62 it was 20.4 µM (inactive); in the test on SW-620 it was 38.9 µM (inactive). Besides, the GI50 is 19.5 µM (inactive) in the test on CCRF-CEM; 18.3 µM (inactive) in the test with SK-MEL-5; 24.4 µM (inactive) with IGROV-1; 28.8 µM (inactive) with SK-MEL-2; 27.9 µM (inactive) in the test with LOX IMVI; 26.4 µM (inactive) in the test on NCI-H226. In addition, the GI50 in the test with UO-31 was 31.3 µM (inactive); in the test on COLO 205 it was 17.7 µM (inactive); in the test with OVCAR-8, 29.7 µM (inactive); in the test with Hs-578T, 44.1 µM (inactive); in the test with K562 it was 29.2 µM (inactive); with MDA-MB-435 it was 25.4 µM (inactive). For the same compound, the results for the GI50 in the test on SK-OV-3 and in the test on OVCAR-5 were 25.3 µM (inactive) and 29.2 µM (inactive), respectively.

For the compound `C/C=C/COc1cc(NC(=S)OC(C)C)ccc1Cl.C/C=C\COc1cc(NC(=S)OC(C)C)ccc1Cl`, the GI50 is 16.1 µM (inactive) with MDA-N; 24.2 µM (inactive) in the test on M14; 17.3 µM in the test with HCT-15; 11.8 µM (inactive) in the test on HOP-92; 20 µM (inactive) with HOP-62; 17.1 µM (inactive) in the test with SW-620. Further, the GI50 in the test on CCRF-CEM was 25.3 µM (inactive); with SK-MEL-5, 16.2 µM (inactive); with IGROV-1, 19.6 µM (inactive); with SK-MEL-2 it was 13.6 µM (inactive); with LOX IMVI, 19.5 µM (inactive); in the test on NCI-H226, 17.5 µM (inactive). In addition, the GI50 with UO-31 was 12 µM (inactive); in the test with COLO 205, 17.6 µM (inactive); in the test on OVCAR-8 it was 18.7 µM (inactive); in the test on Hs-578T it was 17.7 µM (inactive); in the test with MDA-MB-435, 21.2 µM (inactive); with SK-OV-3 it was 21.9 µM (inactive). Also, the GI50 in the test with OVCAR-5 was 19 µM (inactive).

As for `OCC(O)C(O)C(O)C(O)c1nc2cc(Cl)ccc2[nH]1` (centres undefined), the GI50 was > 100 µM (inactive) in the test with MDA-N; > 100 µM (inactive) in the test with M14; > 100 µM in the test on HCT-15; > 100 µM (inactive) with HOP-92; 90.4 µM (inactive) in the test on HOP-62; > 100 µM (inactive) in the test on SW-620. Besides, the GI50 was > 100 µM (inactive) with CCRF-CEM; > 100 µM (inactive) with SK-MEL-5; > 100 µM (inactive) in the test on IGROV-1; > 100 µM (inactive) with SK-MEL-2; > 100 µM (inactive) in the test on LOX IMVI; 26.2 µM (inactive) in the test with NCI-H226. In addition, the GI50 with UO-31, with COLO 205, with OVCAR-8, with Hs-578T, in the test with K562 and in the test on MDA-MB-435 was > 100 µM (inactive) each time. In addition, the GI50 in the test with SK-OV-3 was 56.4 µM (inactive); in the test with OVCAR-5, > 100 µM (inactive).

Consider `CCOP(=O)(CCCC(O)CNc1cc(Cl)nc(N)n1)OCC` (centres undefined), for which the GI50 in the test with MDA-N was > 100 µM (inactive); in the test on HCT-15, > 100 µM; with HOP-92 it was > 100 µM (inactive); in the test on HOP-62, > 100 µM (inactive); with SW-620 it was > 100 µM (inactive); in the test on CCRF-CEM it was > 100 µM (inactive). The GI50 with SK-MEL-5, in the test with IGROV-1, with SK-MEL-2, in the test with LOX IMVI, in the test with NCI-H226 and in the test on UO-31 was > 100 µM (inactive) in each case. The GI50 with COLO 205, in the test on OVCAR-8, with Hs-578T, with K562, in the test on MDA-MB-435 and in the test on SK-OV-3 was > 100 µM (inactive) throughout. The GI50 with OVCAR-5 was > 100 µM (inactive).

Turning to `Cc1cc(/N=C/c2ccc(N(C)C)cc2)n(-c2ccccc2)n1`, the GI50 in the test with MDA-N is 5.86 µM (inactive); with M14 it was 49.2 µM (inactive); with HCT-15 it was 15.6 µM; in the test on HOP-92 it was > 100 µM (inactive); in the test on HOP-62, 17 µM (inactive); with SW-620, 34.9 µM (inactive). In addition, the GI50 with CCRF-CEM is 22.2 µM (inactive); in the test with SK-MEL-5 it was 40.2 µM (inactive); with IGROV-1 it was 50.6 µM (inactive); in the test on SK-MEL-2, > 100 µM (inactive); in the test on LOX IMVI it was 48.3 µM (inactive); with NCI-H226, 50.5 µM (inactive). Besides, the GI50 in the test on UO-31 is > 100 µM (inactive); with COLO 205, 24.8 µM (inactive); in the test with OVCAR-8, 78 µM (inactive); in the test on Hs-578T, 29.9 µM (inactive); in the test on K562 it was 44.6 µM (inactive); in the test on MDA-MB-435, 4.4 µM (inactive). Further, the GI50 in the test with SK-OV-3 was 20.2 µM (inactive); with OVCAR-5 it was > 100 µM (inactive).

As for `CSc1nc(Br)nc2c1ncn2C1CC(Oc2ccc(C)cc2)C(COc2ccc(C)cc2)O1` (centres undefined), the GI50 in the test with MDA-N is > 100 µM (inactive); in the test with M14 it was > 100 µM (inactive); in the test on HCT-15, > 100 µM; with HOP-92, > 100 µM (inactive); in the test with HOP-62 it was > 100 µM (inactive); with SW-620, > 100 µM (inactive). In addition, the GI50 in the test with CCRF-CEM, with SK-MEL-5, with IGROV-1, in the test with SK-MEL-2, in the test on LOX IMVI and in the test on NCI-H226 was > 100 µM (inactive) each time. Further, the GI50 with COLO 205 was > 100 µM (inactive); in the test with OVCAR-8 it was > 100 µM (inactive); with Hs-578T, 25.2 µM (inactive); with MDA-MB-435 it was > 100 µM (inactive); in the test on SK-OV-3, > 100 µM (inactive); in the test on OVCAR-5, > 100 µM (inactive).

For the compound `O=C(NCCCl)NCc1ccccc1`, the GI50 in the test with MDA-N is > 100 µM (inactive); with HCT-15, > 100 µM; with HOP-92, > 100 µM (inactive); in the test with HOP-62, > 100 µM (inactive); in the test on SW-620 it was > 100 µM (inactive); in the test on CCRF-CEM, > 100 µM (inactive). Besides, the GI50 in the test with SK-MEL-5, in the test with IGROV-1, in the test with SK-MEL-2, with LOX IMVI, in the test on NCI-H226 and in the test with UO-31 was > 100 µM (inactive) throughout. For the same compound, the GI50 in the test with COLO 205, with OVCAR-8, in the test on Hs-578T, in the test on K562, in the test with MDA-MB-435 and with SK-OV-3 was > 100 µM (inactive) in each case. The GI50 with OVCAR-5 is > 100 µM (inactive).

As to `COC(=O)[C@@H]1CN(C(C)=O)C(=O)N1`, the GI50 was > 100 µM (inactive) in the test with MDA-N; > 100 µM (inactive) with M14; > 100 µM with HCT-15; > 100 µM (inactive) in the test on HOP-92; > 100 µM (inactive) in the test on HOP-62; > 100 µM (inactive) in the test with SW-620. In addition, the GI50 with CCRF-CEM, in the test with SK-MEL-5, with IGROV-1, in the test on SK-MEL-2, in the test on LOX IMVI and with NCI-H226 was > 100 µM (inactive) each time. Moreover, the GI50 in the test on UO-31, in the test on COLO 205, with OVCAR-8, with Hs-578T, in the test with K562 and in the test on MDA-MB-435 was > 100 µM (inactive) in each case. In addition, the GI50 with SK-OV-3 and in the test on OVCAR-5 was > 100 µM (inactive) in each case.
